SMILES strings stand for the structures. pIC50: −log10 of the molar value. Structures can show the parent of a compound that is named as a salt.

This test concerns the target T1, recombinant human LTA4 hydrolase (rhLTA4H) (Homo sapiens, UniProt P09960).
T1 construct: made in house; host or cells: Spodoptera frugiperda (Sf-9) cells, recombinant baculovirus (pFastBac1)
T1 sequence (P09960 1-611): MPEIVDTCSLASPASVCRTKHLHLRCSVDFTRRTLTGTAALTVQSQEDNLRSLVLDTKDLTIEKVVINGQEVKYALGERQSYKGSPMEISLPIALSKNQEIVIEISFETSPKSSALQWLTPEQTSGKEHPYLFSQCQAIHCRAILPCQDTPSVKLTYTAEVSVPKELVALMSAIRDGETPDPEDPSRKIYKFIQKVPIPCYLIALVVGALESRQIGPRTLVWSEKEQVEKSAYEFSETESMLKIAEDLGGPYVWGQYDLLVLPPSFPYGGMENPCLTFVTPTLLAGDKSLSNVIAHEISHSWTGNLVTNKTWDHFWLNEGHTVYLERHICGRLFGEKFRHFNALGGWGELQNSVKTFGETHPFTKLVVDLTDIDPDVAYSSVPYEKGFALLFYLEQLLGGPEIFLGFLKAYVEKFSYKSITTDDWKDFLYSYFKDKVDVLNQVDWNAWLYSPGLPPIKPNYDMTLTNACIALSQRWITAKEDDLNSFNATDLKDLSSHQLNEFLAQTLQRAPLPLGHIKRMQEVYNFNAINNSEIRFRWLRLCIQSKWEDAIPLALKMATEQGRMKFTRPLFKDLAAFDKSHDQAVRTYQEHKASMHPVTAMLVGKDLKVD
Nature of the test: Recombinant human LTA4 hydrolase assay for LTA4 hydrolase inhibitor activity. The class given is biochemical. Particulars: rhLTA4H, LTA4 substrate, LTB4 by immunoassay; single determination or average; read-out: IC50. How it is done: Assay 1: Recombinant Human LTA4 Hydrolase Assay for LTA4 Hydrolase Inhibitor Activity
Compounds of the present invention were tested for LTA4 hydrolase inhibitor activity against recombinant human LTA4 hydrolase (rhLTA4H). Vectors were prepared and used to express rhLTA4H essentially as follows: LTA4 hydrolase encoding DNA was amplified by polymerase chain reaction (PCR) using a human placental cDNA library as a template. […] The amplified 1.9 kb DNA fragment encoding LTA4 hydrolase was isolated and cloned into the pFastBac1 vector (Invitrogen). Recombinant baculovirus was generated as described by the manufacturer, and used to infect Spodoptera frugiperda (Sf-9) cells. […] The purified enzyme solution was adjusted to contain 0.29 mg/mL LTA4 hydrolase, 50 mM Tris (pH 8.0), 150 mM NaCl, 5 mM dithiothreitol, 50% glycerol, and EDTA-free Complete protease inhibitor cocktail (Roche).
LTA4 substrate was prepared from the methyl ester of LTA4 (Cayman Chemical) by treatment with 67 equiv of NaOH under nitrogen at rt for 40 min. The LTA4 substrate in its free acid form was kept frozen at −80° C. until needed. Each compound was diluted to different concentrations in assay buffer (from Assay Designs) containing 10% DMSO. A 25-μL aliquot of each compound dilution was incubated for 10 min at rt with an equal volume of assay buffer containing 10 ng of recombinant human LTA4H. The solution was then adjusted to 200 μL with assay buffer. […] Each reaction was carried out at rt for 30 min. The reaction was stopped by diluting 10 μL of the reaction mixture with 200 μL of assay buffer. LTB4 was quantified in the diluted sample by a commercially available enzyme-linked immunoassay (Cayman Chemical Co.), as recommended by the manufacturer. Positive controls, under essentially identical conditions but without addition of an inhibitor compound, and negative controls, containing all assay components except enzyme, were routinely run in each experiment. IC50 values were determined by nonlinear regression of the activity data at different compound concentrations using Graphpad Prism 4.0, one site binding competition.
The values presented here are the result of a single determination or an average of two or more determinations, as indicated in parentheses following each value. For compounds tested three or more times, the average value is followed by the standard deviation
What is called pIC50 is the IC50 on a negative log10 scale, so that one unit is a factor of ten. As for `NC(=O)N1C[C@@H]2C[C@H]1CN2Cc1ccc(Oc2nc3ncc(Cl)cc3s2)cc1` [Example 193, (1S,4S)-5-({4-[(6-Chloro[1,3]thiazolo[4,5-b]pyridin-2-yl)oxy]phenyl}methyl)-2,5-diazabicyclo[2.2.1]heptane-2-carboxamide], the negative-log IC50 (pIC50) is 7.24.

Turning to `Cc1cnc2nc(Oc3ccc(CN4CCC(C(=O)N5CCNCC5)CC4)cc3)sc2c1` [Example 229, 6-Methyl-2-(4-{[4-(piperazin-1-ylcarbonyl)piperidin-1-yl]methyl}phenoxy)[1,3]thiazolo[4,5-b]pyridine hydrochloride], the pIC50 is 5.96. The result for `NC(=O)N1CC2CN(CCc3ccc(Oc4nc5ccncc5s4)cc3)CC2C1` (centres unmarked) [Example 246, 5-{2-[4-([1,3]Thiazolo[5,4-c]pyridin-2-yloxy)phenyl]ethyl}hexahydropyrrolo[3,4-c]pyrrole-2(1H)-carboxamide] reads 6.48; that for `O=C(c1ccccn1)N1CCN(Cc2ccc(Oc3nc4ccncc4s3)cc2)CC1` [Example 217, 2-(4-{[4-(Pyridin-2-ylcarbonyl)piperazin-1-yl]methyl}phenoxy)[1,3]thiazolo[5,4-c]pyridine], 5.60; that for `c1ccc(CC2CCN(CCc3ccc(Oc4nc5ncccc5s4)cc3)CC2)cc1` [Example 63, 2-{4-[2-(4-Benzylpiperidin-1-yl)ethyl]phenoxy}[1,3]thiazolo[4,5-b]pyridine], 7.80. For the molecule `c1cc(C2CCN(Cc3ccc(Oc4nc5cnccc5s4)cc3)CC2)ccn1` [Example 190, 2-({4-[(4-Pyridin-4-ylpiperidin-1-yl)methyl]phenyl}oxy)[1,3]thiazolo[4,5-c]pyridine], the negative-log IC50 (pIC50) is 6.34.

On to `Clc1cnc2nc(Oc3ccc(CCN4CCC(N5CCCCC5)CC4)cc3)sc2c1` [Example 223, 1′-(2-{4-[(6-Chloro[1,3]thiazolo[4,5-b]pyridin-2-yl)oxy]phenyl}ethyl)-1,4′-bipiperidine], for which the pIC50 was 6.25.

In the case of `NC(=O)C1CCN(CCOc2ccc(Oc3nc4cccnc4s3)cc2)CC1` [Example 35, 1-{2-[4-([1,3]Thiazolo[5,4-b]pyridin-2-yloxy)phenoxy]ethyl}piperidine-4-carboxamide], the pIC50 is 6.46. The result for `O=C(c1cccs1)N1CCN(Cc2ccc(Oc3nc4ncc(Cl)cc4s3)cc2)CC1` [Example 187, 6-Chloro-2-[(4-{[4-(2-thienylcarbonyl)piperazin-1-yl]methyl}phenyl)oxy][1,3]thiazolo[4,5-b]pyridine] reads 6.54; that for `CS(=O)(=O)N[C@@H]1C[C@H]2CC[C@@H](C1)N2Cc1ccc(Oc2nc3ccncc3s2)cc1` [Example 249, meso-N-{(3-exo)-8-[4-([1,3]Thiazolo[5,4-c]pyridin-2-yloxy)benzyl]-8-azabicyclo[3.2.1]oct-3-yl}methanesulfonamide], 6.85; that for `Cc1cnc2nc(Oc3ccc(CCN4CCC(C(=O)N5CCCC5)CC4)cc3)sc2c1` [Example 198, 6-Methyl-2-[(4-{2-[4-(pyrrolidin-1-ylcarbonyl)piperidin-1-yl]ethyl}phenyl)oxy][1,3]thiazolo[4,5-b]pyridine], 6.76.

In the case of `CN1CCN(C(=O)C2CCN(Cc3ccc(Oc4nc5ccncc5s4)cc3)CC2)CC1` [Example 227, 2-[4-({4-[(4-Methylpiperazin-1-yl)carbonyl]piperidin-1-yl}methyl)phenoxy][1,3]thiazolo[5,4-c]pyridine], the pIC50 is 6.13. The same measure for `CC(=O)N1[C@@H]2CC[C@H]1CN(CCc1ccc(Oc3nc4nccc(C)c4s3)cc1)C2` [Example 209, meso-2-(4-{2-[8-Acetyl-3,8-diazabicyclo[3.2.1]oct-3-yl]ethyl}phenoxy)-7-methyl[1,3]thiazolo[4,5-b]pyridine]: 6.80; for `CNC(=O)C1CCN(CCOc2ccc(Oc3nc4nccc(C)c4s3)cc2)CC1` [Example 165, N-Methyl-1-[2-({4-[(7-methyl[1,3]thiazolo[4,5-b]pyridin-2-yl)oxy]phenyl}oxy)ethyl]piperidine-4-carboxamide]: 7.28.
